Where a name gives a salt, the structure may show the parent alone.
Test system: not given
Assay: not given
Details: not given

Compound	melting point
COc1ccc(C(=O)Nc2c(Cl)cncc2Cl)c2c1OCC2	196 to 197 °C
COc1ccc(C(=O)Cc2c(Cl)cncc2Cl)c2cc(C#N)oc12	197 to 199 °C
CCOC(=O)Cc1coc2c(OC)ccc(C(=O)Cc3c(Cl)cncc3Cl)c12	105 to 115 °C
COc1ccc(C(=O)Nc2c(Cl)cncc2Cl)c2c1CC1(CCCC1)O2	156 to 158 °C
COc1ccc(C(=O)Nc2ccncc2)c2c1CC1(CCCC1)O2.CS(=O)(=O)O	164 °C (dec.)
COc1ccc(-c2ccc(C(=O)O)cc2)c2c1OC(C)(C)C2	249 to 252 °C
COc1ccc(-c2cccc(C(=O)O)c2)c2c1OC(C)(C)C2	220 to 225 °C
COc1ccc(C(=O)Nc2c(F)cccc2F)c2c(CC(=O)OCc3ccccc3)coc12	223 to 224 °C
COc1ccc(C(=O)Nc2c(C)cccc2C)c2c(CC(=O)OCc3ccccc3)coc12	202 to 204 °C
COc1ccc(C(=O)Cc2c(Cl)cncc2Cl)c2c(CC(=O)O)coc12	192 to 194 °C
COc1ccc(C(=O)Cc2c(Cl)cncc2Cl)c2c(CC(=O)OCc3ccccc3)coc12	132 to 133 °C
CCOC(=O)Cc1coc2c(OC)ccc(C(=O)Cc3c(Cl)cccc3Cl)c12	153 to 154 °C
COc1ccc(C(=O)Cc2c(Cl)cccc2Cl)c2cc(C(=O)N(C)c3cccc(F)c3)oc12	198 to 199 °C
COc1ccc(C(=O)Cc2c(Cl)cncc2Cl)c2cc(C(=O)c3ccccc3)oc12	213 to 215 °C
COc1ccc(C(=O)Nc2cccc(C(=O)O)c2)c2cc(C(=O)c3ccccc3)oc12	262 to 263 °C
COc1ccc(C(=O)Cc2c(Cl)cncc2Cl)c2c1OC(C)(C)O2	133 to 134 °C
COc1ccc(C(=O)Cc2c(Cl)cncc2Cl)c2c1OC(c1ccccc1)(c1ccccc1)O2	156 to 157 °C
COc1ccc(C(=O)Cc2c(Cl)cncc2Cl)c2c1OCCO2	158 to 160 °C
COc1ccc(C(=O)Nc2c(Cl)cncc2Cl)c2c1OCCO2	143 to 145 °C
COc1ccc(C(=O)Nc2c(Cl)cncc2Cl)c2c1OCCCO2	149 to 150 °C
COc1ccc(C(=O)Nc2c(Cl)cncc2Cl)c2c1OCCCCO2	115 to 117 °C
CCN1CCN(C(=O)c2cc3c(C(=O)Cc4c(Cl)cncc4Cl)ccc(OC)c3o2)CC1.O=C(O)/C=C/C(=O)O	196 to 197 °C
COc1ccc(C(=O)Nc2c(Cl)cncc2Cl)c2cc(Cc3ccccc3)oc12	141 to 142 °C
COc1ccc(/C=C/c2c(Cl)cncc2Cl)c2c1OC(C)(C)C2	114 to 118 °C
COc1ccc(/C=C/c2c(Cl)cncc2Cl)c2cc(-c3ccncc3)oc12	204 to 206 °C
COc1ccc(C=C(C#N)C#N)c2c1OC(C)(C)C2	198 to 200 °C
COc1ccc(C(=O)Cc2c(Cl)cncc2Cl)c2c1OC(C)(C)C2	127 to 131 °C
COc1ccc(C(C)=Cc2ccncc2)c2c1OC1(CCCC1)C2 (as salt: salt) [Compound 75, 7-Methoxy-4-[1-methyl-2-(4-pyridyl)ethenyl]-spiro[2,3-dihydrobenzofuran-2,1′-cyclopentane]]	85 to 87 °C
COC1(OC)CC=C(C(Cc2ccncc2)c2ccccc2)C2=C1OC(C)(C)C2 (racemic) [Compound 47, (±) 7-Methoxy-2,2-dimethyl-7-methoxy-4-[1-phenyl-2-(4-pyridyl)ethyl]-2,3-dihydrobenzofuran]	78 to 81 °C

The next lines start with the values.

melting point	Compound
111 to 117 °C	CCOC(=O)Cc1coc2c(OC)ccc(C(=O)Cc3ccncc3)c12
101 to 103 °C	COc1ccc(C(=O)Cc2ccncc2)c2c1CC1(CCCC1)O2
116 to 122 °C	COC(=O)c1ccc(-c2ccc(OC)c3c2CC(C)(C)O3)cc1
89 to 91 °C	COC(=O)c1cccc(-c2ccc(OC)c3c2CC(C)(C)O3)c1
120 to 122 °C	COc1ccc(C(=O)Cc2c(Cl)cncc2Cl)c2c1OCC2CC(=O)OCc1ccccc1 (centres unmarked)
170 to 171 °C	COc1ccc(C(=O)Cc2c(Cl)cncc2Cl)c2c1OCO2
226 to 228 °C	COc1ccc(C(=O)Cc2ccncc2)c2c1OCCO2.Cl
154 to 155 °C	COc1ccc(C(=O)Cc2c(Cl)cccc2Cl)c2c1OCCO2
176 to 177 °C	COc1ccc(C(=O)Nc2c(Cl)cccc2Cl)c2c1OCCO2
174 to 175 °C	CCOC(=O)c1cccc(NC(=O)c2ccc(OC)c3c2OCCO3)c1
283 to 284 °C	COc1ccc(C(=O)Nc2cccc(C(=O)O)c2)c2c1OCCO2
141 to 141.5 °C	CCOC(=O)c1ccc(-c2ccc(OC)c3c2OCCO3)cc1
281 to 284 °C	COc1ccc(-c2ccc(C(=O)O)cc2)c2c1OCCO2
205 to 208 °C	COc1ccc(C(=O)Cc2ccncc2)c2c1OCCCO2.Cl
185 to 187 °C	COc1ccc(CCc2ccncc2)c2c1OCCCO2.Cl
180 to 181 °C	COc1ccc(C(=O)Nc2ccncc2)c2c1OC(C)(C)O2
85 to 87 °C	COc1ccc(C(C)=Cc2ccncc2)c2c1OC(C)(C)C2
124 to 128 °C	COc1ccc(/C=C/C(=O)Nc2ccncc2)c2c1OC1(CCCC1)C2
107 to 111 °C	COc1ccc(C(=O)Cc2ccncc2)c2c1OC(C)(C)C2
138 to 145 °C	COc1ccc(CNc2ccncc2)c2c1OCC2C (racemic)
117 to 118 °C	COc1ccc(/C=C/c2c(Cl)cncc2Cl)c2c1OCC2C (racemic)

Test system: cAMP-specific phosphodiesterase (PDE IV)
Assay: Inhibition of the PDE IV enzyme derived from a dog trachea
Format: biochemical
Details: test compound 10^−6 M; PDE IV from dog tracheal smooth muscle; substrate cAMP 1 μM
Experimental: cAMP-specific phosphodiesterase (PDE IV) was purified from a dog tracheal smooth muscle according to the method of Torphy et al. [Molecular Pharmacol., 37, 206-214 (1990)]. The PDE activity was measured by the following two steps according to the method of Kincaid and Manganiello et al. [Method in Enzymology (J. D. Corbin and R. A. Jonson, Eds.), 199, 457-470 (1988)]. Using [^3]cAMP (at a final concentration of 1 μM) as a substrate, the reaction was carried out in a standard mixture containing N,N-bis(2-hydroxyethyl)-2-aminoethanesulfonic acid (50 mM, pH=7.2), MgCl2 (1 mM), and soybean trypsin inhibitor (0.1 mg/ml). The reaction was initiated by adding the enzyme, followed by incubation at 30° C. for 10 to 30 minutes. After stopping the reaction with hydrochloric acid, the generated […] was completely converted to adenosine by 5′-nucleotidase.
The resultant was subjected to chromatography on DEAE-Sephadex A-25, and radio activity of the eluted [^3H] adenosine was counted using a scintillation counter. Each of the test drugs was dissolved in DMSO (final concentration 1.7%) and then added to the mixture.

Compound	Enzyme Inhibitory Activity (%, 10^−6 M)
CCOC(=O)CC1COc2c(OC)ccc(C(=O)Nc3ccncc3)c21 (racemic) [Compound 6, (±)-3-Ethoxycarbonylmethyl-7-methoxy-4-pyridylaminocarbonyl-2,3-dihydrobenzofuran]	66%
COc1ccc(C(=O)Nc2c(Cl)cncc2Cl)c2c1OCC2CC(=O)N1CCN(C)CC1.Cl (racemic) [Compound 17, (±)-4-[(3,5-Dichloro-4-pyridyl)aminocarbonyl]-7-methoxy-3-[(4-methylpiperazin-1-yl)carbonylmethyl]-2,3-dihydro-benzofuran.hydrochloride]	63%
COc1ccc(C(=O)Nc2c(Cl)cncc2Cl)c2c1OCC2CC(=O)Nc1cccnc1 (racemic) [Compound 19, (±)-4-[(3,5-Dichloro-4-pyridyl)aminocarbonyl]-7-methoxy-3-[(3-pyridyl)aminocarbonyl]methyl-2,3-dihydro-benzofuran]	87%
COc1ccc(C(=O)Nc2c(Cl)cncc2Cl)c2c1OCC2CC(=O)Nc1ncccn1 (racemic) [Compound 20, (±)-4-[(3,5-Dichloro-4-pyridyl)aminocarbonyl]-7-methoxy-3-[(2-pyrimidyl)aminocarbonyl]methyl-2,3-dihydro-benzofuran]	80%
COc1ccc(C(=O)Nc2c(Cl)cncc2Cl)c2c1OCC2CC(=O)N1CCc2ccccc2C1 (racemic) [Compound 22, (±)-4-[(3,5-Dichloro-4-pyridyl)aminocarbonyl]-7-methoxy-3-[(1,2,3,4-tetrahydroisoquinolinyl)carbonyl]-methyl-2,3-dihydrobenzofuran]	85%
COc1ccc(C(=O)Nc2c(Cl)cncc2Cl)c2c1OCC2CC(=O)NCc1ccccn1 (racemic) [Compound 24, (±)-4-[(3,5-Dichloro-4-pyridyl)aminocarbonyl]-7-methoxy-3-[(2-pyridylmethyl)aminocarbonyl]methyl-2,3-dihydrobenzofuran]	80%
COc1ccc(C(=O)Nc2c(Cl)cncc2Cl)c2c1OCC2CC(=O)NCc1ccncc1 (racemic) [Compound 26, (±)-4-[(3,5-Dichloro-4-pyridyl)aminocarbonyl]-7-methoxy-3-[(4-pyridylmethyl)aminocarbonyl]methyl-2,3-dihydrobenzofuran]	79%
COc1ccc(C(Sc2ccncc2)c2ccccc2)c2c1OC(C)(C)C2 (racemic) [Compound 49, (±)-7-Methoxy-2,2-dimethyl-4-[1-phenyl-1-(4-pyridylthio)methyl]-2,3-dihydrobenzofuran]	40%
COc1ccc(C(Cc2c(Cl)cncc2Cl)OC)c2c1OC(C)(C)C2 (racemic) [Compound 62, (±)-4-[2-(3,5-Dichloro-4-pyridyl)-1-methoxyethyl]-7-methoxy-2,2-dimethyl-2,3-dihydrobenzofuran]	63%
COc1ccc(C(C#N)Cc2ccncc2)c2c1OC1(CCCC1)C2.Cl (racemic) [Compound 64, (±)-4-[1-Cyano-2-(4-pyridyl)ethyl]-7-methoxy-spiro[2,3-dihydrobenzofuran-2,1′-cyclopentane].hydrochloride]	78%
COc1ccc(C(C)(C#N)Cc2ccncc2)c2c1OC1(CCCC1)C2.Cl (racemic) [Compound 65, (±)-4-[1-Cyano-1-methyl-2-(4-pyridyl)ethyl]-7-methoxy-spiro[2,3-dihydrobenzofuran-2,1′-cyclopentane].hydrochloride]	74%
COc1ccc(C(Cc2ccncc2)c2ccccc2)c2cc(-c3ccncc3)oc12.Cl (racemic) [Compound 66, (±)-7-Methoxy-4-[1-phenyl-2-(4-pyridyl)ethyl]-2-(4-pyridyl)benzofuran.hydrochloride]	49%
